Test results as given in patent US20080255084A1, “Combination of Organic Compounds” (priority 2005, published 2008).

Tests used:
[1] = in vivo; cited from earlier work
rat renin = molecular target: T1, rat renin (Rattus norvegicus, UniProt P08424); test: renin inhibitory potency against rat renin; type: biochemical; details: loss of potency against rat renin
T1 sequence (P08424 65-402): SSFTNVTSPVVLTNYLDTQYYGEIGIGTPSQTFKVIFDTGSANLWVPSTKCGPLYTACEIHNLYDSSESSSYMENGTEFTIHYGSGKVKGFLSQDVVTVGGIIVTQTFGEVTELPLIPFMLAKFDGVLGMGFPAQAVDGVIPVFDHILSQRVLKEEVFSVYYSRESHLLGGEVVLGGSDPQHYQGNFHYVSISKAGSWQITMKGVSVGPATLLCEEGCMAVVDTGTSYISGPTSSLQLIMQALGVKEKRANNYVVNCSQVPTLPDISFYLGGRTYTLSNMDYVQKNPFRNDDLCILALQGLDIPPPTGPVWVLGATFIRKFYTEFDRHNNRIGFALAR

dog renin = molecular target: T2, dog renin (Canis lupus familiaris, UniProt Q6DYE7); test: renin inhibitory potency against dog renin; type: biochemical; details: compared with human renin
T2 sequence (Q6DYE7 66-403): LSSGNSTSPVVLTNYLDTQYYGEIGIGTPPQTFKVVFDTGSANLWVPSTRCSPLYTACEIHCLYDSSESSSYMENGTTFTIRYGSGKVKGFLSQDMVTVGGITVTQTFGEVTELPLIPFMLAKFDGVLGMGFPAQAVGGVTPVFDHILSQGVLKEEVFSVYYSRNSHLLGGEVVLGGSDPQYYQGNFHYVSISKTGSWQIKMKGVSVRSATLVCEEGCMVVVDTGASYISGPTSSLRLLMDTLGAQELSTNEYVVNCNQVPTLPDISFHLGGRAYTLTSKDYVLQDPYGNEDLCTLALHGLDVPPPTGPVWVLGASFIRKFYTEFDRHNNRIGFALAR

mouse renin = test: renin inhibitory potency against mouse renin; type: biochemical; details: compared with human renin

| SMILES | effect on weight loss [1] | weaker as a rat renin inhibitor (rat renin) | potency against dog renin (dog renin) | potency against mouse renin (mouse renin) |
| --- | --- | --- | --- | --- |
| CC1(C)O[C@@H]2[C@@H](CO[C@@]3(COS(N)(=O)=O)OC(C)(C)O[C@@H]23)O1 [Topiramate] | increase weight loss | – | – | – |
| NS(=O)(=O)Cc1noc2ccccc12 [Zonisamide] | lead to weight loss | – | – | – |
| COCCCOc1cc(C[C@@H](C[C@H](N)[C@@H](O)C[C@H](C(=O)NCC(C)(C)C(N)=O)C(C)C)C(C)C)ccc1OC [aliskiren, 2(S),4 (S),5(S),7(S)—N-(3-amino-2,2-dimethyl-3-oxopropyl)-2,7-di(1-methylethyl)-4-hydroxy-5-amino-8-[4-methoxy-3-(3-methoxy-propoxy)phenyl]-octanamide] | – | 1-2 orders of magnitude | reasonable potency | reasonable potency |
